Reference: PubChem BioAssay (NCI)
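Five concentrations, 48 hours, 96-well plates. TGI: concentration producing complete growth inhibition.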

Experiments:
Assay in all cases: NCI-60 cell line screen, 48 h
SK-MEL-28 melanoma = test system: SK-MEL-28 melanoma
KM12 colon = test system: KM12 colon
NCI-H522 lung = test system: NCI-H522 lung
CCRF-CEM leukemia = test system: CCRF-CEM leukemia
SNB-78 CNS = test system: SNB-78 CNS
HL-60(TB) leukemia = test system: HL-60(TB) leukemia
MOLT-4 leukemia = test system: MOLT-4 leukemia
RXF 393 renal = test system: RXF 393 renal
KM20L2 colon = test system: KM20L2 colon
UACC-62 melanoma = test system: UACC-62 melanoma
U251 CNS = test system: U251 CNS
SNB-19 CNS = test system: SNB-19 CNS
HOP-92 NSCLC = test system: HOP-92 NSCLC
EKVX NSCLC = test system: EKVX NSCLC
SF-295 CNS = test system: SF-295 CNS
TK-10 renal = test system: TK-10 renal
A498 renal = test system: A498 renal
M19-MEL melanoma = test system: M19-MEL melanoma
HT29 colon = test system: HT29 colon
NCI-H23 lung = test system: NCI-H23 lung
RXF-631 renal = test system: RXF-631 renal
IGROV1 ovarian = test system: IGROV1 ovarian
SR leukemia = test system: SR leukemia
UO-31 renal = test system: UO-31 renal
SK-OV-3 ovarian = test system: SK-OV-3 ovarian
DMS 114 small cell lung = test system: DMS 114 small cell lung
OVCAR-8 ovarian = test system: OVCAR-8 ovarian
UACC-257 melanoma = test system: UACC-257 melanoma
NCI-H460 lung = test system: NCI-H460 lung
OVCAR-5 ovarian = test system: OVCAR-5 ovarian
A549 NSCLC = test system: A549 NSCLC
M14 melanoma = test system: M14 melanoma
HOP-62 NSCLC = test system: HOP-62 NSCLC
HCT-116 colon = test system: HCT-116 colon
ACHN renal = test system: ACHN renal
NCI-H226 lung = test system: NCI-H226 lung
COLO 205 colon = test system: COLO 205 colon
SNB-75 CNS = test system: SNB-75 CNS
LXFL 529 NSCLC = test system: LXFL 529 NSCLC
CAKI-1 renal = test system: CAKI-1 renal
SN12C renal = test system: SN12C renal
HCC-2998 colon = test system: HCC-2998 colon
MALME-3M melanoma = test system: MALME-3M melanoma
SK-MEL-5 melanoma = test system: SK-MEL-5 melanoma
RPMI-8226 leukemia = test system: RPMI-8226 leukemia
XF 498 CNS = test system: XF 498 CNS
HCT-15 colon = test system: HCT-15 colon
DMS 273 small cell lung = test system: DMS 273 small cell lung
K-562 leukemia = test system: K-562 leukemia
OVCAR-3 ovarian = test system: OVCAR-3 ovarian
SF-268 CNS = test system: SF-268 CNS
SW-620 colon = test system: SW-620 colon
SF-539 CNS = test system: SF-539 CNS
OVCAR-4 ovarian = test system: OVCAR-4 ovarian
DLD-1 colon = test system: DLD-1 colon
786-0 renal = test system: 786-0 renal
SK-MEL-2 melanoma = test system: SK-MEL-2 melanoma
HOP-18 NSCLC = test system: HOP-18 NSCLC

Measured: TGI

COc1ccc(C(=O)O)c2c(=O)c3cccnc3[nH]c12
> 100 µM: SK-MEL-28 melanoma | KM12 colon | NCI-H522 lung | CCRF-CEM leukemia | SNB-78 CNS | HL-60(TB) leukemia | MOLT-4 leukemia | RXF 393 renal | KM20L2 colon | UACC-62 melanoma | U251 CNS | SNB-19 CNS | HOP-92 NSCLC | EKVX NSCLC | SF-295 CNS | TK-10 renal | A498 renal | M19-MEL melanoma | HT29 colon | NCI-H23 lung | RXF-631 renal | IGROV1 ovarian | SR leukemia | UO-31 renal | SK-OV-3 ovarian | DMS 114 small cell lung | OVCAR-8 ovarian | UACC-257 melanoma | NCI-H460 lung | OVCAR-5 ovarian | A549 NSCLC | M14 melanoma | HOP-62 NSCLC | HCT-116 colon | ACHN renal

CN(C)C=[N+]=[N-]
> 100 µM: NCI-H226 lung | COLO 205 colon | KM12 colon | NCI-H522 lung | SNB-75 CNS | SNB-78 CNS | HL-60(TB) leukemia | MOLT-4 leukemia | RXF 393 renal | KM20L2 colon | LXFL 529 NSCLC | UACC-62 melanoma | U251 CNS | CAKI-1 renal | SN12C renal | SNB-19 CNS | HOP-92 NSCLC | HCC-2998 colon | EKVX NSCLC | SF-295 CNS | MALME-3M melanoma | SK-MEL-5 melanoma | RPMI-8226 leukemia | TK-10 renal | A498 renal | M19-MEL melanoma | HT29 colon | XF 498 CNS | NCI-H23 lung | HCT-15 colon | DMS 273 small cell lung | K-562 leukemia | OVCAR-3 ovarian | IGROV1 ovarian | SF-268 CNS | SR leukemia | UO-31 renal | SK-OV-3 ovarian | DMS 114 small cell lung | OVCAR-8 ovarian | SW-620 colon | UACC-257 melanoma | SF-539 CNS | OVCAR-4 ovarian | DLD-1 colon | 786-0 renal | NCI-H460 lung | OVCAR-5 ovarian | A549 NSCLC | M14 melanoma | SK-MEL-2 melanoma | HOP-62 NSCLC | HOP-18 NSCLC | HCT-116 colon | ACHN renal
